Our source for the inhibition values is PMC6934184, “Selective DNA-PKcs inhibition extends the therapeutic index of localized radiotherapy and chemotherapy” (The Journal of Clinical Investigation, 2019).

In this test the target is T1, RET V804M (Homo sapiens, UniProt P07949, V804M).
T1 construct: purchased Thermo Fisher Scientific (Life Technologies) SelectScreen
Kind of test: SelectScreen LanthaScreen. The format is binding. The settings on record: read-out: % displacement. In short, it runs like this:
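Percent values come from Thermo SelectScreen profiling of NU5455, combining activity and binding assays. CSF1R was run in Z'LYTE format at Km app ATP, and CAMK1 in Adapta format with ATP listed at 10.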

T1 sequence (P07949 29-1114 V804M): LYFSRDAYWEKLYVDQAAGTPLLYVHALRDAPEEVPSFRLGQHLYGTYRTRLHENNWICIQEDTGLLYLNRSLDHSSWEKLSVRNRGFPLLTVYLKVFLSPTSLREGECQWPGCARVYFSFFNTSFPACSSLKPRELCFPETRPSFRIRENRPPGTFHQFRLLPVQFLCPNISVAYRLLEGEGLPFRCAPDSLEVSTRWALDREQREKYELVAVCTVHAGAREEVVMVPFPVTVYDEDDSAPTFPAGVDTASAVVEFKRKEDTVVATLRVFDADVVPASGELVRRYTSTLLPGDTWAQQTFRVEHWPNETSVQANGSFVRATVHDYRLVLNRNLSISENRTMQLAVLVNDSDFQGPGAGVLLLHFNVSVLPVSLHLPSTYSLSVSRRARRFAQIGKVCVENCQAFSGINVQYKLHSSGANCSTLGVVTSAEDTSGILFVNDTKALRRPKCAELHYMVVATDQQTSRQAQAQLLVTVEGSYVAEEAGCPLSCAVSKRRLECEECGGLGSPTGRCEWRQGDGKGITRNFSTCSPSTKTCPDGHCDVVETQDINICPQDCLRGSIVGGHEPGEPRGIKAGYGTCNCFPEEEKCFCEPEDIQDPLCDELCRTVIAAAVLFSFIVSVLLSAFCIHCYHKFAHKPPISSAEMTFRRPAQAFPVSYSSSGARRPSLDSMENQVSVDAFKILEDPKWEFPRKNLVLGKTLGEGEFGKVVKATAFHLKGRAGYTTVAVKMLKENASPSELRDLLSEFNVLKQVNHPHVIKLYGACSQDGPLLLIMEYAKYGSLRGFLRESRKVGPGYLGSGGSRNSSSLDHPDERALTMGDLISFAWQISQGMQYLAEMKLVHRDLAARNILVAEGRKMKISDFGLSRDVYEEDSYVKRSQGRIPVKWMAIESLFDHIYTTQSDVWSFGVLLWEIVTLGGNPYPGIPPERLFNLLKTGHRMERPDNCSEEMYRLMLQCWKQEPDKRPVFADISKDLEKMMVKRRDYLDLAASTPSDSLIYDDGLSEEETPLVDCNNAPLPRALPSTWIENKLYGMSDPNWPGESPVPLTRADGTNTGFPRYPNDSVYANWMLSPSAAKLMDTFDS

For the compound `CN(C(=O)CN1CCOCC1)c1ccc2sc3c(-c4cccc5c(=O)cc(N6CC7CCC(C6)O7)oc45)cccc3c2c1` [NU5455], the inhibition at 1 µM amounted to 11.3%.
